Source: patent US20150209379A1, “TREATMENT OF PROSTATE CANCER AND HEMATOLOGIC NEOPLASMS” (THOMAS JEFFERSON UNIVERSITY, priority 2012, published 2015)

Biological target: T1, Stat5a (Homo sapiens, UniProt P42229)
T1 sequence (P42229 1-794): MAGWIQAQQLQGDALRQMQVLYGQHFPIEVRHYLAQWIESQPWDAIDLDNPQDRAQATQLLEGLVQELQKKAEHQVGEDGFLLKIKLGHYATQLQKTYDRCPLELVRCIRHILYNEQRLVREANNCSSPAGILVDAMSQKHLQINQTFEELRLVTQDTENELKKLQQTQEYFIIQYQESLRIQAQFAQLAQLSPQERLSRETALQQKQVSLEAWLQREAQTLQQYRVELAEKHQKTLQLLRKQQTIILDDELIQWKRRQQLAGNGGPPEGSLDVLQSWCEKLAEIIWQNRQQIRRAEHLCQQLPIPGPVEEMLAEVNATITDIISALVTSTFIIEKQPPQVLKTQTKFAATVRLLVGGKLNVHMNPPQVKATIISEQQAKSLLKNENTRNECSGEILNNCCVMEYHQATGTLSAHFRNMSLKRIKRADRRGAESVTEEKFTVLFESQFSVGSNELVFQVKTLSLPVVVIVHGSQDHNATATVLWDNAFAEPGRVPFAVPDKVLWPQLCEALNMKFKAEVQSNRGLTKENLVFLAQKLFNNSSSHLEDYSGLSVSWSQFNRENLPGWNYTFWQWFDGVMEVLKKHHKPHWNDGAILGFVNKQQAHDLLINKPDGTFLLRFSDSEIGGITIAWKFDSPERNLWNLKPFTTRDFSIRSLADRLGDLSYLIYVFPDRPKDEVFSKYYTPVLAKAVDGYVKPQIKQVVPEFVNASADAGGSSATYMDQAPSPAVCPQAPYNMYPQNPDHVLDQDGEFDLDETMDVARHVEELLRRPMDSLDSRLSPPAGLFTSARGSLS
Experiment: Stat5a dimerization (FLAG-/MYC-tagged Stat5a co-immunoprecipitation) in PC-3 cells
Assay type: cell-based
Parameters: expressed in transfected cells; host or cells: PC-3 human prostate cancer cells
Conditions: 2 hours pretreatment, then hPrl 10 nM 30 minutes
Description: (§1) FLAG-tagged Stat5a and MYC-tagged Stat5a were generated by standard molecular biology cloning techniques. Plasmid pCMV3-FLAG-Stat5a, pCMV3-MYC-Stat5a and pPr1R were co-transfected using FuGENE6 (Roche) into PC-3 cells (2 μg of each plasmid per 1×10^7 cells). The cells were starved for 20 hours, pretreated with test compound for 2 hours, then stimulated with hPrl (10 nM) in RPMI 1640 without serum for 30 minutes. The cell lysates were immunoprecipitated with 25 μl anti-FLAG M2 […] affinity gel (2 μg/ml, Sigma), anti-MYC pAb (1 μg/ml, Upstate) or normal rabbit serum (NRS). The primary antibodies were used in the immunoblottings at the following concentrations: anti-FLAG pAb (1:1000; Stratagene), anti-MYC mAb (1:1000; Sigma), anti-Stat5a/b mAb (1:250) (Transduction Laboratories) detected by horseradish peroxidase-conjugated secondary antibodies. The results are shown in FIG. 3A for Compound 1 and FIG. 3B for Compound 2.
Lanes 1, 2, 4, 6 and 8 represent cells stimulated with human prolactin (Prl) for 30 minutes which induces dimerization of Stat5. Two hours prior to Prl-stimulation, the cells had been treated with DMSO (lanes 1-4), the control compound C5 (lanes 7 and 8) and either Compound 1 (lanes 5 and 6 in FIG. 3A) or Compound 2 (lanes 5 and 6 in FIG. 3B). […] It should be noted the drug effect in this study was not due to cell apoptosis induction, as the treatment time was only 2 hours. Treatment of at least 48 hours is required for the compound to induce prostate cancer cell apoptosis.
as §1, with “and pPrlR” for “and pPr1R”, “hours, pre-treated” for “hours, pretreated”, “with NBPP” for “with test compound”, “2 h,” for “2 hours,”, “antibodies.” for “antibodies. The results are shown in FIG. 3A for Compound 1 and FIG. 3B for Compound 2.”
Lanes 1, 2, 4, 6 and 8 represent cells stimulated with human prolactin (Prl) for 30 minutes which induces dimerization of Stat5. Two hours prior to Prl-stimulation, the cells had been treated with DMSO (lanes 1-4), the control compound C5 (lanes 5 and 6) or NBPP (lanes 7 and 8) to test whether the Stat5a/b-inhibitor compound, NBPP, would be able to inhibit dimerization of StatS. […] It should be noted the drug effect in this study was not due to cell apoptosis induction, as the treatment time was only 2 hours. Treatment of at least 48 hours is required for the compound to induce prostate cancer cell apoptosis.
FLAG-tagged Stat5a and MYC-tagged Stat5a were generated by standard molecular biology cloning techniques.as follows. […] The primary antibodies were used in the immunoblottings at the following concentrations: anti-FLAG pAb (1:1000; Stratagene), anti-MYC mAb (1:1000; Sigma), anti-Stat5a/b mAb (1:250) (Transduction Laboratories) detected by horseradish peroxidase-conjugated secondary antibodies. […]

## OC[C@H]1O[C@@H](n2cnc3c(NCc4ccccc4)ncnc32)[C@H](O)[C@@H]1O [Compound N6BA, N^6-benzyladenosine]
  effect on Stat5a dimerization: effectively inhibited Stat5a dimerization

## OC[C@H]1O[C@@H](n2cnc3c(NNc4ccccc4)ncnc32)[C@H](O)[C@@H]1O [Compound 2, (2R,3S,4R,5R)-2-(hydroxymethyl)-5-(6-(2-phenylhydrazinyl)-9H-purin-9-yl)tetrahydrofuran-3,4-diol]
  effect on Stat5a dimerization: effectively inhibited Stat5a dimerization

## OC[C@H]1O[C@@H](n2cnc3c(N4CCc5ccccc5C4)ncnc32)[C@H](O)[C@@H]1O [Compound 1, (2R,3R,4S,5R)-2-(6-(3,4-Dihydroisoquinolin-2(1H)-yl)-9H-purin-9-yl)-5-(hydroxymethyl)tetrahydrofuran-3,4-diol]
  effect on Stat5a dimerization: effectively inhibited Stat5a dimerization

## OC[C@H]1O[C@@H](n2ccc3c(NCc4ccccc4)ncnc32)[C@H](O)[C@@H]1O [NBPP, N-(phenylmethyl)-7-β-D-ribofuranosyl-7H-pyrrolo[2,3-d]pyrimidin-4-amine]
  effect on Stat5a dimerization: effectively inhibited Stat5a dimerization
